Assays:
[1] = tested on: human diffuse large B lymphoma TMD8 cell subcutaneous xenograft; assay: TMD8 subcutaneous xenograft tumor model (WX009 study); type: in vivo, SCID mouse; conditions: 20 mg/kg QD PO, 18th day after administration
Description: The formula for calculating the tumor inhibition rate TGI (%)=[1−(average tumor volume at the end of administration in a treatment group-average tumor volume at the beginning of administration in the treatment group))/(average tumor volume at the end of treatment in solvent control group-average tumor volume at the beginning of treatment in solvent control group)]×100%.

[2] = tested on: human diffuse large B lymphoma TMD8 cell subcutaneous xenograft; assay: TMD8 subcutaneous xenograft tumor model (WX017 and WX027 study); conditions: 20 mg/kg QD PO, 11th day after administration
Method: a) TMD8 cells were cultured in RPMI-1640 medium containing 10% FBS and maintained in a 37° C. saturated humidity incubator with 5% CO2. TMD8 cells in logarithmic period were collected, resuspended in RPMI-1640 basal medium, and Matrigel was added at 1:1, and the cell concentration was adjusted to 4×10^7/mL. Under aseptic conditions, 0.1 mL of cell suspension was inoculated under the skin of the right back of SCID mice, and the inoculation concentration was 4×10^6/0.1 mL/mouse.
When the tumor grew to a certain size, the animals with too large, too small or irregular tumor shape were excluded, and the animals with tumor volume of 108.76-188.11 mm^3 were selected. According to the tumor volume, the animals were divided into 10 groups by random block method, with 6 mice in each group, and the average tumor volume was about 152.11 mm^3. The health status and death of animals were monitored every day, and routine examinations included observing the effects of tumor growth and drug treatment on daily behaviors of animals, such as behavioral activities, food intake and water intake, weight change (weight was measured twice a week), tumor size (tumor volume was measured twice a week), appearance signs or other abnormal conditions.
The formula for calculating tumor volume (TV) was: 1/2×a×b^2, where a and b were the measured length and width of the tumor respectively. The formula for calculating the tumor inhibition rate TGI (%)=[1−(average tumor volume at the end of administration in a treatment group-average tumor volume at the beginning of administration in the treatment group))/(average tumor volume at the end of treatment in solvent control group-average tumor volume at the beginning of treatment in solvent control group)]×100%.
In this study, the experimental data were all expressed by Mean±SEM. Statistical analysis was based on the data of RTV at the end of the experiment and analyzed by IBM SPSS Statistics software. T test was used to analyze the comparison between two groups, and one-way ANOVA was used to analyze the comparison between three or more groups. If the variance was even (there was no significant difference in F value), Tukey's method was used to analyze it, and if the variance was uneven (there was significant difference in F value), Games-Howell method was used to test it. p<0.05 was deemed to a significant difference.

[3] = tested on: TNF-α production in THP-1 cells; assay: TNF-α ELISA in LPS-stimulated THP-1 cells; type: cell-based; conditions: Homo sapiens, TNF-α in supernatant, 150 ng/mL LPS, 18 hours
Method: THP-1 human acute single cell leukemia cells were purchased from ATCC (Cat #TIB-202) and cultured at 37° C. in 5% CO2 incubator. The composition of medium was RPMI1640 (Gibco, Cat #22400-105), and the supplementary compositions were 10% FBS (Gibco, Cat #10091148); 1% PenStrep (Gibco, Cat #15140); 0.05 mM β-mercaptoethanol (Sigma, Cat #M6250).
TNF-α Elisa kit was used to detect the content of TNF-α in cell culture supernatant samples. TNF-α was produced by stimulating THP-1 cells with 150 ng/mL LPS (Sigma, Cat #L6529).
THP-1 cells cultured normally at logarithmic growth period were seeded in a 96-well plate (Corning #3599) at a certain concentration (1*10^5/100 μL) and then put into a cell incubator for incubation. After two hours, 16.7 μL of different concentrations of the compound to be tested (8*final concentration) were added and incubated in an incubator. After one hour, 16.7 μL of 1200 ng/mL LPS was added and incubated in an incubator. After 18 hours, the culture supernatant samples were collected by centrifugation, and the content of TNF-α could be detected by TNF-α Elisa kit. Finally, OD signals (OD450-OD570) were read on envision board reader.
The OD450-OD570 signal value was converted into a percentage inhibition rate.
Inhibition rate %=(ZPE−sample)/(ZPE−HPE)*100.
“HPE” referred to the OD450-OD570 signal value of the control well without LPS stimulated cells, and “ZPE” referred to the OD450-OD570 signal value of the control well with LPS stimulated cells. The IC50 value of the compound was calculated by XLFit in the excel add-in.
Y=Bottom+(Top−Bottom)/(1+(IC50/X)^HillSlope). Equation: […]

[4] = tested on: OCI-LY10 human diffuse large B lymphoma cells; assay: OCI-LY10 cell proliferation (Cell Titer Glo); type: cell-based; conditions: 72 hours
Method: (§1) The tumor cell lines OCI-LY10 and TMD-8 were used to detect the effect of the compound of the disclosure on inhibiting tumor cell proliferation in vitro.
OCI-LY10 human diffuse large B lymphoma cells, from Nanjing Cobioer Biotechnology Co., Ltd
(§2) The compound was diluted with DMSO to a final concentration of 10 mM. The compound was freshly prepared and ready for use.
(§3) a) Logarithmic growth period cells were collected, counted, resuspended with complete culture medium, the cell concentration was adjusted to an appropriate concentration (determined according to the results of cell density optimization test), inoculated on 96-well plates, and 100 μL of cell suspension was added to each well. Cells were incubated in an incubator with 37° C., 100% relative humidity and 5% CO2 for 24 hours.
(§4) b) The compound to be tested was diluted to 50 μM with culture medium and then gradient diluted for 8 times. Cells were added with 25 μL/well. The final concentrations of the compound were from […], 3-fold gradient dilution, with a total of 9 concentration points.
(§5) c) Cells were incubated in an incubator with 37° C., 100% relative humidity and 5% CO2 for 72 hours;
(§6) d) 60 μL of CTG test reagent was added to the culture medium.
(§7) e) Shaked fully and reacted in the dark for 10 min. Luminescence was measured on ENVISION and the inhibition rate was calculated.
(§8) Cell growth inhibition rate %=[(RLUv−RLUs)/(RLUv−RLUb)]×100%

[5] = biological target: T1, human BTK (Homo sapiens, UniProt Q06187); assay: In vitro BTK kinase activity, 33P isotope-labeled kinase assay; type: biochemical
T1 construct: purchased Reaction Biology Corp
T1 sequence (Q06187 whole entry): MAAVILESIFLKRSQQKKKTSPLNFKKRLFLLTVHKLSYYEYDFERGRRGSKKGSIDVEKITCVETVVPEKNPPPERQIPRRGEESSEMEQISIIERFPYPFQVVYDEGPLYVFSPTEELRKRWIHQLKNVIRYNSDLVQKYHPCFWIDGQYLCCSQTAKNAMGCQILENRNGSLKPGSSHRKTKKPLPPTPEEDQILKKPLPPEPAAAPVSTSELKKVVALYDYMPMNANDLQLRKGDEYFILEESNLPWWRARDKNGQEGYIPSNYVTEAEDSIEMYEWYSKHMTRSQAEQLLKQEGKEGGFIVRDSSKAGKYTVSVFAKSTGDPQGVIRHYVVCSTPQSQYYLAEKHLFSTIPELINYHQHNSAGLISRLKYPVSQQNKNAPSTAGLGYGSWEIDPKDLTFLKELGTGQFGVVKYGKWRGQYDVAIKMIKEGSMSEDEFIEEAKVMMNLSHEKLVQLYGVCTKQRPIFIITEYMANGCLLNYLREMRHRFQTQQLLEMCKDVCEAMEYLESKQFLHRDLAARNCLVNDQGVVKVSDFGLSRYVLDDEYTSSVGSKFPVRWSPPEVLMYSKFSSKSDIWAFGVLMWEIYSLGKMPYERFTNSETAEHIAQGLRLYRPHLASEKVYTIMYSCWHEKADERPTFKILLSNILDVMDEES
Method: The IC50 values were determined using ^33P isotope-labeled kinase activity assay (Reaction Biology Corp) to evaluate the inhibitory ability of the tested compounds on human BTK.
(§9) Buffer conditions: 20 mM Hepes (pH 7.5), 10 mM MgCl2, 1 mM EGTA, 0.02% Brij35, 0.02 mg/mL BSA, 0.1 mM Na3VO4, 2 mM DTT, 1% DMSO.
Test procedure: At room temperature, the tested compound was dissolved in DMSO and a 10 mM solution was prepared for use. The substrate was dissolved in a newly prepared buffer solution, and the BTK kinase was added thereto and mixed evenly. The compound dissolved in DMSO was added to the kinase reaction mixture through Echo 550 (Acoustic technology; Nanoliter range). After incubation for 20 minutes at room temperature, ^33P-ATP was added to initiate the reaction. The reaction was carried out at room temperature for 2 hours, and the radioactivity of the reaction solution drop was detected by filtration-binding method with P81 ion exchange filter paper. The kinase activity data were expressed by comparing the kinase activity of the group containing the tested compound with the kinase activity of the blank group (only containing DMSO), and the IC50 value was obtained by curve fitting by Prism4 software (GraphPad), the experimental results were shown in Table 3.

[6] = tested on: OCI-LY3 cell line; assay: OCI-LY3 cell proliferation (CTG); type: cell-based; conditions: Homo sapiens, 72 hours
Method: The tumor cell line OCI-LY3 was used to detect the effect of the compound of the disclosure on inhibiting tumor cell proliferation in vitro.
The tumor cell line used in this experiment was provided by Nanjing Cobioer Biotechnology Co., Ltd. See Table 6 below for specific information.
The OCI-LY3 cell line was cultured in the corresponding medium at 37° C. and 5% CO2, and the logarithmic growth period cells were used for experimental planking. The cells were collected and centrifuged at 800 rpm for 5 minutes, and the culture medium was re-suspended and spread in a 96-well plate. After being cultured overnight in 37° C., 5% CO2 incubator, drugs with different concentration gradients (10 μL of prepared diluent of test compound was added) were added, and incubated in 37° C., 5% CO2 incubator for 72 hours. The cell culture plate was incubated with CTG reagent at room temperature in the dark for 30 minutes and return to room temperature. CTG solution was added into the biosafety cabinet in the dark 100 μL/well, and was shaken and mixed evenly on plate shaker in the dark for 2 minutes, and incubated at room temperature in the dark for 10 minutes. The luminous value was read and recorded with Perkin Elmer Envision instrument.
The luminous value of the blank control group was subtracted from the luminous value measured at each drug concentration, the ratio of this value to DMSO group was taken as the cell inhibition rate (%). GraphPad software was used, the logarithm of drug concentration (log drug concentration) versus inhibition rate was plotted, and the IC50 value and 95% confidence value were automatically fitted and calculated by log (inhibitor) vs. response-variable slop (four parameters) algorithm of nonlinear regression by software.

[7] = biological target: T2, human IRAK4 (Homo sapiens, UniProt Q9NWZ3); assay: In vitro IRAK4 kinase activity, 33P isotope-labeled kinase assay; type: biochemical
T2 construct: purchased Reaction Biology Corp
T2 sequence (Q9NWZ3 1-460): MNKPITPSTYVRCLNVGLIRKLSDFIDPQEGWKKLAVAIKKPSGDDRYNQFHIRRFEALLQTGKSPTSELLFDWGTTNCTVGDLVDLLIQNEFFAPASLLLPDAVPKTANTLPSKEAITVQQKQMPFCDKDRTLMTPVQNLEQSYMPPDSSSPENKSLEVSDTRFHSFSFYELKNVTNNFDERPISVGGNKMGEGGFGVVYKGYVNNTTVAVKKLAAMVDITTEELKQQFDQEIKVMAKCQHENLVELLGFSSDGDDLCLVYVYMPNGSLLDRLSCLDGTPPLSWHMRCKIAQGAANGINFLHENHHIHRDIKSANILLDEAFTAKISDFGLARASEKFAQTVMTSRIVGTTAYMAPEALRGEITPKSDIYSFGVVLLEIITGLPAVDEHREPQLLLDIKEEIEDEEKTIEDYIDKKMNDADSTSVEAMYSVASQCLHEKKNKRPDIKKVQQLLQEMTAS
Method: The IC50 values were determined using ^33P isotope-labeled kinase activity assay (Reaction Biology Corp) to evaluate the inhibitory ability of the tested compounds on human IRAK4.
as §9
Test procedure: At room temperature, the tested compound was dissolved in DMSO and a 10 mM solution was prepared for use. The substrate was dissolved in a newly prepared buffer solution, and the tested IRAK4 kinase was added thereto and mixed evenly. The DMSO solution dissolved with the tested compound was added to the above mixed evenly reaction solution using acoustic technique (Echo 550). After incubation for 15 minutes, ^33P-ATP was added to initiate the reaction. The reaction was carried out at room temperature for 120 minutes, and the reaction mixture was dropped on P81 ion exchange filter paper (Whatman #3698-915). The filter paper was washed repeatedly with 0.75% phosphoric acid solution, and the radioactivity of phosphorylated substrate residues on the filter paper was determined. The kinase activity data were expressed by comparing the kinase activity of the group containing the tested compound with the kinase activity of the blank group (only containing DMSO), and the IC50 value was obtained by curve fitting by Prism4 software (GraphPad), the experimental results were shown in Table 2.

[8] = tested on: TMD-8 human diffuse large B lymphoma cells; assay: TMD-8 cell proliferation (Cell Titer Glo); type: cell-based; conditions: TMD8, 72 hours
Method: as §1
TMD-8 human diffuse large B lymphoma cells, from Nanjing Cobioer Biotechnology Co., Ltd
as §2, §3, §4, §5, §6, §7, §8

| IC50 [3] [nM] | IC50 [4] [nM] | IC50 [5] [nM] | IC50 [6] [nM] | IC50 [7] [nM] | IC50 [8] [nM] | SMILES | TGI [1] [%] | TGI ([1]; listed as Ibrahim) [%] | TGI [2] [%] |
| --- | --- | --- | --- | --- | --- | --- | --- | --- | --- |
| – | – | – | – | – | – | C=CC(=O)N1CCC[C@@H](n2nc(-c3ccc(Oc4ccccc4)cc3)c3c(N)ncnc32)C1 [ibrutinib, reference compound] | 12.95 | 13 | 39 |
| 6 | 8 | 2.9 | 34 | 1.8 | 20 | CS(=O)(=O)CCc1cn2cc(NC(=O)c3coc(-c4ccnc(N)c4)n3)c(-c3ccccc3)cc2n1 [WX013] | – | – | – |

Reference: patent US20230391776A1, “AMIDE OXAZOLE COMPOUND” (MEDSHINE DISCOVERY INC., priority 2020, published 2023)
